Results reported in US12599611B2, “Methods and compositions for treating seizure disorders in pediatric patients” (Neurelis, Inc., priority 2021, dated 2026).

System: beta frequency by EEG
Assay: EEG monitoring of beta rhythm / beta frequency after diazepam administration
Conditions: after intranasal administration of 20 mg of diazepam via an intranasal composition

CN1C(=O)CN=C(c2ccccc2)c2cc(Cl)ccc21 [diazepam, 7-chloro-1,3-dihydro-1-methyl-5-phenyl-1,4-benzodiazepin-2-one]
time to changes in beta frequency (EEG): ≤ 10 min
